# *1 amine or outer side, *2 acyl side, *3 side chain or, on linkers, in order; H or OH if unused. Where a SMILES comes first, the peptide text is derived from it. Bridges are numbered along the chain shown (N, C = ends). [ ]: non-standard residue; d: D form. The star is where a group is joined. X1 = O=C(NC(=O)[C@H](Cc1cnc[nH]1)N[*:1])[C@@H](Cc1cnc[nH]1)C(=O)[*:2]; C20 diacid = O=C(O)CCCCCCCCCCCCCCCCCCC(=O)*; γGlu = O=C(O)[C@H](CCC(=O)[*:2])N[*:1]
# Columns and labels:
# [1] = Agonist activity at human AMY3R (CT+RAMP3) expressed in Hollex1 cells incubated for 3 hrs by luminescence assay; type: cell-based; conditions: Hollex1, 3 h
# [2] = Agonist activity at human calcitonin receptor expressed in BHK570 cells assessed as increase in intracellular cAMP concentration incubated for 3 hrs in absence of albumin by CRE luciferase reporter gene assay; type: cell-based; conditions: BHK570, 3 h
# [3] = Displacement of [125I]-amylin from human AMY3R (CTR+RAMP3) expressed in BHK-13 cells measured after 120 mins by scintillation proximity assay; type: cell-based
# [4] = Displacement of [125I]-calcitonin from human calcitonin receptor expressed in tk-ts 13 cells measured after 120 mins by scintillation proximity assay; type: cell-based; conditions: tk-ts13
# [5] = Displacement of [125I]-amylin from rat AMY3R (CTR+RAMP3) expressed in BHK-13 cells measured after 120 mins by scintillation proximity assay; type: cell-based
# [6] = Displacement of [125I]-calcitonin from rat calcitonin receptor expressed in tk-ts 13 cells measured after 120 mins by scintillation proximity assay; type: cell-based; conditions: tk-ts13
# [7] = Solubility of the compound in lactate at pH 3 by UPLC analysis; type: physicochemical; conditions: lactate buffer
# [8] = Solubility of the compound in lactate at pH 4 by UPLC analysis; type: physicochemical; conditions: lactate buffer
# Homo sapiens [9] = species on record: Homo sapiens; test: Ratio of EC50 for human calcitonin receptor expressed in BHK570 cells to EC50 for human AMY3R (CT+RAMP3) expressed in Hollex1 cells; type: cell-based
# Homo sapiens [10] = species on record: Homo sapiens; test: Ratio of IC50 for displacement of [125I]-calcitonin from human calcitonin receptor expressed in tk-ts 13 cells to IC50 for displacement of [125I]-amylin from human AMY3R (CTR+RAMP3) expressed in BHK-13 cells; type: cell-based
# Rattus norvegicus [11] = species on record: Rattus norvegicus; test: Ratio of IC50 for displacement of [125I]-calcitonin from rat calcitonin receptor expressed in tk-ts 13 cells to IC50 for displacement of [125I]-amylin from rat AMY3R (CTR+RAMP3) expressed in BHK-13 cells; type: cell-based
# Insulin (Homo sapiens) [12] = biological target: Insulin (Homo sapiens) (UniProt P01308); test: Effect on insulin (unknown origin) amyloid fibril formation assessed as lag time in glycyl-glycine buffer at pH 4 measured after 45 hrs by thioflavin-T fluorescence assay
# Sequence of Insulin (Homo sapiens) (P01308 whole entry): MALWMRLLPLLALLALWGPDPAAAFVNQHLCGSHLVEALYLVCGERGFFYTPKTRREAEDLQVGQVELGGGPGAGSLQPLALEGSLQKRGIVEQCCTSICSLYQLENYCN
# Insulin (Homo sapiens) [13] = biological target: Insulin (Homo sapiens) (UniProt P01308); test: Effect on insulin (unknown origin) amyloid fibril formation assessed as peptide recovery in glycyl-glycine buffer at pH 4 measured after 45 hrs by thioflavin-T fluorescence assay relative to control; design: concentration or dose not given beside the values
# Rattus norvegicus [14] = species on record: Rattus norvegicus; test: Ratio of EC50 for rat calcitonin receptor expressed in BHK-13 cells to EC50 for rat AMY3R (CT+RAMP3) expressed in tk-ts13 cells; type: cell-based
# Rattus norvegicus [15] = test: Reduction in food intake in Sprague-Dawley rat at 3 nmol/kg, sc administered as single dose measured upto 24 hrs relative to control; type: functional; design: scale not given: the % may be the effect or the level left; conditions: time hrs <=24
# Rattus norvegicus [16] = test: Reduction in food intake in Sprague-Dawley rat at 3 nmol/kg, sc administered as single dose measured after 24 to 48 hrs relative to control; type: functional; design: scale not given: the % may be the effect or the level left; conditions: time 24-48 hrs
# [17] = Agonist activity at rat AMY3R (CT+RAMP3) expressed in tk-ts13 cells assessed as increase in intracellular cAMP level incuabted for 25 mins by CRE luciferase reporter gene assay; type: cell-based; conditions: tk-ts13, 25 min
# [18] = Agonist activity at rat calcitonin receptor expressed in BHK-13 cells assessed as increase in intracellular cAMP concentration incubated for 25 mins by CRE luciferase reporter gene assay; type: cell-based; conditions: BHK-13, 25 min
# [19] = Solubility of the compound in lactate at pH 5 by UPLC analysis; type: physicochemical; conditions: lactate buffer
# [20] = Solubility of the compound in bis-tris propane at pH 6 by UPLC analysis; type: physicochemical; conditions: bis-tris propane buffer
# [21] = Solubility of the compound in bis-tris propane at pH 6.5 by UPLC analysis; type: physicochemical; conditions: bis-tris propane buffer
# [22] = Solubility of the compound in bis-tris propane at pH 7 by UPLC analysis; type: physicochemical; conditions: bis-tris propane buffer
# [23] = Solubility of the compound in bis-tris propane at pH 7.5 by UPLC analysis; type: physicochemical; conditions: bis-tris propane buffer
# [24] = Solubility of the compound in bis-tris propane at pH 8 by UPLC analysis; type: physicochemical; conditions: bis-tris propane buffer
SMILES,EC50 [1] [nM],EC50 [2] [nM],IC50 [3] [nM],IC50 [4] [nM],IC50 [5] [nM],IC50 [6] [nM],solubility [7] [µM],solubility [8] [µM],TIME (Insulin (Homo sapiens) [12]) [h],Activity (Insulin (Homo sapiens) [13]) [%],EC50 [17] [nM],EC50 [18] [nM],Ratio EC50 (Homo sapiens [9]),Ratio IC50 (Homo sapiens [10]),Ratio IC50 (Rattus norvegicus [11]),Ratio EC50 (Rattus norvegicus [14]),Activity (Rattus norvegicus [15]) [%],Activity (Rattus norvegicus [16]) [%],also measured
CC[C@H](C)[C@H](NC(=O)[C@@H](CCC(=O)O)NC(=O)CNC(=O)[C@H](Cc1ccccc1)NC(=O)[C@H](CC(N)=O)NC(=O)[C@H](CC(N)=O)NC(=O)[C@H](CO)NC(=O)[C@H](CO)NC(=O)[C@H](CCCNC(=N)N)NC(=O)[C@H](Cc1cnc[nH]1)NC(=O)[C@H](CC(C)C)NC(=O)[C@H](Cc1ccccc1)NC(=O)[C@H](CCC(=O)O)NC(=O)[C@H](C)NC(=O)[C@H](CC(C)C)NC(=O)[C@H](CCCNC(=N)N)NC(=O)[C@H](CCC(N)=O)NC(=O)[C@@H](NC(=O)[C@H](C)NC(=O)[C@@H]1CSSC[C@H](NC(=O)[C@H](Cc2cnc[nH]2)NC(=O)CC[C@H](NC(=O)CCCCCCCCCCCCCCCCCCC(=O)O)C(=O)O)C(=O)N[C@@H](CC(N)=O)C(=O)N[C@@H]([C@@H](C)O)C(=O)N[C@@H](C)C(=O)N[C@@H]([C@@H](C)O)C(=O)N1)[C@H](C)O)C(=O)N[C@@H](CC(C)C)C(=O)N[C@@H](CO)C(=O)N[C@@H](CCCNC(=N)N)C(=O)N[C@H](C(=O)N[C@@H](CC(N)=O)C(=O)N[C@H](C(=O)NCC(=O)N[C@@H](CO)C(=O)N[C@@H](CC(N)=O)C(=O)N[C@H](C(=O)N[C@@H](Cc1ccc(O)cc1)C(N)=O)[C@@H](C)O)C(C)C)[C@@H](C)O,,,,,,,,,0,0,,,2,2,3,,,,
CC[C@H](C)[C@H](NC(=O)[C@@H]1CCCN1C(=O)CNC(=O)[C@H](Cc1ccccc1)NC(=O)[C@H](CC(N)=O)NC(=O)[C@H](CC(N)=O)NC(=O)[C@H](CO)NC(=O)[C@H](CO)NC(=O)[C@H](Cc1c[nH]cn1)NC(=O)[C@H](CCCNC(=N)N)NC(=O)[C@H](CC(C)C)NC(=O)[C@H](Cc1ccccc1)NC(=O)[C@H](CCC(=O)O)NC(=O)[C@H](C)NC(=O)[C@H](CC(C)C)NC(=O)[C@H](CCCNC(=N)N)NC(=O)[C@H](CCC(N)=O)NC(=O)[C@@H](NC(=O)[C@H](C)NC(=O)[C@@H]1CSSC[C@H](NC(=O)[C@H](CCCCN)NC(=O)CC[C@H](NC(=O)CCCCCCCCCCCCCCCCCCC(=O)O)C(=O)O)C(=O)N[C@@H](CC(N)=O)C(=O)N[C@@H]([C@@H](C)O)C(=O)N[C@@H](C)C(=O)N[C@@H]([C@@H](C)O)C(=O)N1)[C@@H](C)O)C(=O)N[C@@H](CC(C)C)C(=O)N1CCC[C@H]1C(=O)N1CCC[C@H]1C(=O)N[C@H](C(=O)N[C@@H](CC(N)=O)C(=O)N[C@H](C(=O)NCC(=O)N[C@@H](CO)C(=O)N[C@@H](CC(N)=O)C(=O)N[C@H](C(=O)N[C@@H](Cc1ccc(O)cc1)C(N)=O)[C@@H](C)O)C(C)C)[C@@H](C)O ({C20 diacid-γGlu}-KCNTATCATQRLAEFLRHSSNNFGPILPPTNVGSNTY-NH2; disulfide 2-7),0.1,0.447,0.35,0.811,0.532,2.06,200,200,45,85,,,4,,4,0.5,30,8,

# Continued, in another order:
EC50 [1] [nM],EC50 [2] [nM],IC50 [3] [nM],IC50 [4] [nM],IC50 [5] [nM],IC50 [6] [nM],solubility [7] [µM],solubility [8] [µM],TIME (Insulin (Homo sapiens) [12]) [h],Activity (Insulin (Homo sapiens) [13]) [%],EC50 [17] [nM],EC50 [18] [nM],SMILES,Ratio EC50 (Homo sapiens [9]),Ratio IC50 (Homo sapiens [10]),Ratio IC50 (Rattus norvegicus [11]),Ratio EC50 (Rattus norvegicus [14]),Activity (Rattus norvegicus [15]) [%],Activity (Rattus norvegicus [16]) [%],also measured
0.077,0.129,0.818,1.54,0.445,1.37,200,200,,,,,CC[C@H](C)[C@H](NC(=O)[C@H](CCC(=O)O)NC(=O)CNC(=O)[C@H](Cc1ccccc1)NC(=O)[C@H](CC(N)=O)NC(=O)[C@H](CC(N)=O)NC(=O)[C@H](CO)NC(=O)[C@H](CO)NC(=O)[C@H](CCCNC(=N)N)NC(=O)[C@H](Cc1cnc[nH]1)NC(=O)[C@H](CC(C)C)NC(=O)[C@H](Cc1ccccc1)NC(=O)[C@H](CCC(=O)O)NC(=O)[C@H](C)NC(=O)[C@H](CC(C)C)NC(=O)[C@H](CCCNC(=N)N)NC(=O)[C@H](CCC(N)=O)NC(=O)[C@@H](NC(=O)[C@H](C)NC(=O)[C@@H]1CSSC[C@H](NC(=O)[C@H](Cc2cnc[nH]2)NC(=O)CC[C@H](NC(=O)CCCCCCCCCCCCCCCCCCC(=O)O)C(=O)O)C(=O)N[C@@H](CC(N)=O)C(=O)N[C@@H]([C@@H](C)O)C(=O)N[C@@H](C)C(=O)N[C@@H]([C@@H](C)O)C(=O)N1)[C@@H](C)O)C(=O)N[C@@H](CC(C)C)C(=O)N[C@@H](CO)C(=O)N[C@@H](CCCNC(=N)N)C(=O)N[C@H](C(=O)N[C@@H](CC(N)=O)C(=O)N[C@H](C(=O)NCC(=O)N[C@@H](CO)C(=O)N[C@@H](CC(N)=O)C(=O)N[C@H](C(=O)N[C@@H](Cc1ccc(O)cc1)C(N)=O)[C@@H](C)O)C(C)C)[C@@H](C)O,,,,,,,
0.096,0.157,,,,,200,200,3,14,0.261,1.29,CC[C@H](C)[C@H](NC(=O)[C@@H]1CCCN1C(=O)CNC(=O)[C@H](Cc1ccccc1)NC(=O)[C@H](CC(N)=O)NC(=O)[C@H](CC(N)=O)NC(=O)[C@H](CO)NC(=O)[C@H](CO)NC(=O)[C@H](Cc1cnc[nH]1)NC(=O)[C@H](Cc1cnc[nH]1)NC(=O)[C@H](CC(C)C)NC(=O)[C@H](Cc1ccccc1)NC(=O)[C@H](CCC(=O)O)NC(=O)[C@H](C)NC(=O)[C@H](CC(C)C)NC(=O)[C@H](CCCNC(=N)N)NC(=O)[C@H](CCC(N)=O)NC(=O)[C@@H](NC(=O)[C@H](C)NC(=O)[C@@H]1CSSC[C@H](NC(=O)[C@H](Cc2cnc[nH]2)NC(=O)[C@H](Cc2cnc[nH]2)C(=O)NC(=O)[C@H](Cc2cnc[nH]2)NC(=O)CC[C@H](NC(=O)CCCCCCCCCCCCCCCCCCC(=O)O)C(=O)O)C(=O)N[C@@H](CCCNC(=N)N)C(=O)N[C@@H]([C@@H](C)O)C(=O)N[C@@H](C)C(=O)N[C@@H]([C@@H](C)O)C(=O)N1)[C@@H](C)O)C(=O)N[C@@H](CC(C)C)C(=O)N1CCC[C@H]1C(=O)N1CCC[C@H]1C(=O)N[C@H](C(=O)N[C@@H](CC(N)=O)C(=O)N[C@H](C(=O)NCC(=O)N[C@@H](CO)C(=O)N[C@@H](CC(N)=O)C(=O)N[C@H](C(=O)N[C@@H](Cc1ccc(O)cc1)C(N)=O)[C@@H](C)O)C(C)C)[C@@H](C)O ({C20 diacid-γGlu}-[X1]HCRTATCATQRLAEFLHHSSNNFGPILPPTNVGSNTY-NH2; disulfide 3-8),2,,,5,26,5,solubility [19]: 200 µM; solubility [20]: 200 µM; solubility [21]: 57 µM; solubility [22]: 2 µM; solubility [23]: 1 µM; solubility [24]: 3 µM
0.002,0.003,,0.066,0.028,0.03,,,,,0.001,0.0001,CC(C)C[C@H](NC(=O)[C@H](CCCCN)NC(=O)CNC(=O)[C@H](CC(C)C)NC(=O)[C@@H](NC(=O)[C@@H]1CSSC[C@H](N)C(=O)N[C@@H](CO)C(=O)N[C@@H](CC(N)=O)C(=O)N[C@@H](CC(C)C)C(=O)N[C@@H](CO)C(=O)N[C@@H]([C@@H](C)O)C(=O)N1)C(C)C)C(=O)N[C@@H](CO)C(=O)N[C@@H](CCC(N)=O)C(=O)N[C@@H](CCC(=O)O)C(=O)N[C@@H](CC(C)C)C(=O)N[C@@H](Cc1c[nH]cn1)C(=O)N[C@@H](CCCCN)C(=O)N[C@@H](CC(C)C)C(=O)N[C@@H](CCC(N)=O)C(=O)N[C@H](C(=O)N[C@@H](Cc1ccc(O)cc1)C(=O)N1CCC[C@H]1C(=O)N[C@@H](CCCNC(=N)N)C(=O)N[C@H](C(=O)N[C@@H](CC(N)=O)C(=O)N[C@H](C(=O)NCC(=O)N[C@@H](CO)C(=O)NCC(=O)N[C@H](C(=O)N1CCC[C@H]1C(N)=O)[C@@H](C)O)[C@@H](C)O)[C@@H](C)O)[C@@H](C)O [CALCITONIN SALMON],2,1,1,,,,
